Assay results published in patent US20180049996A1, “THERAPEUTIC AGENT FOR CHRONIC RESPIRATORY DISEASE AND COMPOSITION FOR INHIBITING CARDIAC FIBROSIS” (NIPPON HYPOX LABORATORIES INCORPORATED, priority 2015, published 2018).
Marks after values point to notes of the source that are not given here.

Tests used:
[1] = system: Myocardial Disorder Induced by Doxorubicin; test: Relative weights of the hearts, myocardial disorder induced by doxorubicin; type: in vivo, female SD rats; details: Test group 2: doxorubicin 13 mg/kg + HTHQ 50 mg/kg oral
Source text: Doxorubicin is used to produce disease-model animals of cardiomyopathy. […] The recombinant human erythropoietin (rHuEPO) is mainly used in the treatment of renal anemia etc., and has the effect to protect myocardium. The test group 3 is used to confirm the presence or absence of the inhibitory effect brought about by combining HTHQ and rHuEPO on myocardial disorder. […] Recombinant human erythropoietin was daily administered to the rats in test group 3 starting from 3 days before the administration of doxorubicin by intravenous injection. The number of animals in each group was 16. 8 animals of each group were sacrificed after collecting blood on day 7 and 14 after the administration of doxorubicin, and the autopsy of the hearts, the calculation of the relative weights of the hearts, the histopathologic examination of the hearts and the hematological examination were conducted. Myocardium is hypertrophied by fibrosing and the weight of the myocardium increases, and the relative weight of the heart tends to increase. […] Also, there was no significant difference between the other groups on day 7 and 14 after the administration (p<0.05).

[2] = system: TNF-α; test: TNF-α level in BAL fluid (ELISA), COPD model; type: in vivo, C57BL/6N mice; details: HTHQ 10 and 20 mg/kg/day oral; tobacco smoke 10 days + LPS; compared to COPD model group
Protocol: (§1) 6 week old male SPF C57BL/6N mice, 20 to 25 g of body weight, were purchased from CORETEC INC. (South Korea).
(§2) The tests were conducted as follows. The mice in the COPD (chronic obstructive pulmonary disease) model group of the test groups were exposed to tobacco smoke for 1 hour per day (8 cigarettes/day) for 10 days and LPS (5 μg/50 μL/mouse) was intranasally administered to the mice on day 8 after the start of the tests. […]
(§3) The mice in the test groups were euthanized 72 hours after the LPS administration and the mice in the normal control group were euthanized on day 11 after the start of the tests by intraperitoneal injection of pentobarbital (Hanrimu pharmaceutical, South Korea) at 50 mg/kg and then the bronchi were excised. […] After preparing slide samples from 100 μL of BAL cell fluid using Cytospin (4° C., 1000 rpm×5 min), the cell numbers of inflammatory cells (neutrophil, macrophages) present in the BAL fluid were counted using a Diff-Quik stain kit.
(§4) The supernatant of the BAL fluid stored was taken out of the super-cryostat, and TNF-α and IL-6 levels were measured as the levels of pro-inflammatory cytokines in the supernatant. A quantitative ELISA kit (a product from Invitrogen) and an ELISA analyzer (a product from Molecular Devices, LLC.) were used for the measurement and the measurement wavelength was 450 nm.

[3] = system: IL-6; test: IL-6 level in BAL fluid (ELISA), COPD model; type: in vivo, C57BL/6N mice; details: HTHQ 10 and 20 mg/kg/day oral; tobacco smoke 10 days + LPS; compared to COPD model group
Protocol: as §1, §2, §3, §4

SMILES: CCCCCCOc1cc(C)c(O)c(C)c1C [HTHQ, 2,3,5-trimethylhydroquinone-1-hexyl ether]
- relative weight of the heart ([1]; Day 7 after administration, p<0.05 vs Test group 1): 0.4208 ± 0.0409^a %
- relative weight of the heart ([1]; Day 14 after administration): 0.3658 ± 0.0357%
- TNF-α level in BAL fluid [2]: effectively reduced
- IL-6 level in BAL fluid [3]: significantly reduced
